Data reported in ChEMBL document CHEMBL1129835, “Selective cytotoxicity of certain 9-substituted ellipticines for leukemia cells in a variety of leukemia cell cultures” (1997).

Legend:
Type in all cases: functional
Conditions in all cases: Homo sapiens
IGROV-1 = experiment: The compound was evaluated for cytotoxicity against IGROV1 ovarian cancer cell line
MDA-N = experiment: The compound was evaluated for cytotoxicity against MDA-N breast cancer cell line
U-251 = experiment: The compound was evaluated for cytotoxicity against U251 CNS cancer cell line
PC-3 = experiment: The compound was evaluated for cytotoxicity against PC-3 prostate cancer cell line
NCI-H322M = experiment: The compound was evaluated for cytotoxicity against NCI-H322M non-small cell lung cancer cell line
HCT-116 = experiment: The compound was evaluated for cytotoxicity against HCT116 colon cancer cell line
LOX IMVI = experiment: The compound was evaluated for cytotoxicity against LOX-IMVI melanoma cell line
CAKI-1 = experiment: The compound was evaluated for cytotoxicity against CAKI-1 renal cancer cell line
MOLT-4 = experiment: The compound was evaluated for cytotoxicity against MOLT-4 leukemia cell line

Structure (SMILES): Cc1c2ccncc2c(C)c2c1[nH]c1ccc(CN(CCO)CCO)cc12
- GI50 (IGROV-1): 0.12 µM
- GI50 (MDA-N): 0.37 µM
- GI50 (U-251): 0.26 µM
- GI50 (PC-3): 0.34 µM
- GI50 (NCI-H322M): 0.22 µM
- GI50 (HCT-116): 0.1 µM
- GI50 (LOX IMVI): 0.15 µM
- GI50 (CAKI-1): 0.25 µM
- GI50 (MOLT-4): 0.02 µM
